23 compounds from US20260176267A1, “PREPARATION OF IMIDAZOPYRIDINE AND IMIDAZOPYRIDAZINE DERIVATIVES AS NOVEL DIACYLGLYCERIDE O-ACYLTRANSFERASE 2 INHIBITORS” (Merck Sharp & Dohme LLC, priority 2022, published 2026) can be followed below.

This assay concerns the target T1, human DGAT2 (hDGAT2) (Homo sapiens, UniProt Q96PD7).
T1 construct: made in house; host or cells: Sf-9 insect cells (baculovirus), membrane fraction
T1 sequence (Q96PD7 1-388): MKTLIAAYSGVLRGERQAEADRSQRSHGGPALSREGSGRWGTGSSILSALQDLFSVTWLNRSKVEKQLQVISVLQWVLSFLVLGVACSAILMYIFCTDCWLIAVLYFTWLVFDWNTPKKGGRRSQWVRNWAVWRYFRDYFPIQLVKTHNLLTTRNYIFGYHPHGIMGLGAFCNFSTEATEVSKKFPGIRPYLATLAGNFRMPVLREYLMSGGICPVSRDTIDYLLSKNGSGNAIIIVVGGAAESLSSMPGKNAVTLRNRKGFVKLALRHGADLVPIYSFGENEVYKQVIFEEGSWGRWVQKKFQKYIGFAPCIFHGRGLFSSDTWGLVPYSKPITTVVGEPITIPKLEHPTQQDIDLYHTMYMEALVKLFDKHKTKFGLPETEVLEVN
Nature of the assay: DGAT2 Enzymatic Activity Assay. It counts as biochemical. The conditions noted are these: membrane prep of Sf-9 cells expressing hDGAT2; 13C18-triolein product by LC/MS/MS; 25 μM diolein, 5 μM 13C oleoyl-CoA, rt. Here is the method:
Sf-9 insect cells were maintained in Grace's insect cell culture medium with 10% heated-inactivated fetal bovine serum, 1% Pluronic F-68 and 0.14 μg/ml Kanamycine sulfate at 27° C. in a shaker incubator. After infection with untagged baculovirus expressing human DGAT2 (hDGAT2) at multiplicity of infection (MOI) 3 for 48 hours, cells were harvested. Cell pellets were suspended in buffer containing 10 mM Tris-HCl pH 7.5, 1 mM EDTA, 250 mM sucrose and Complete Protease Inhibitor Cocktail (Sigma Aldrich), and sonicated on ice. Cell debris were removed by centrifugation at 2000×g for 15 minutes. Membrane fractions were isolated by ultracentrifugation (100,000×g), resuspended in the same buffer, and frozen (−80° C.) for later use. The protein concentration was determined with the Pierce™ BCA Protein Assay Kit (Thermo Fisher Scientific).
LC/MS/MS analyses were performed using Thermal Fisher's LX4-TSQ Vantage system. This system consists of an Agilent binary high-performance liquid chromatography (HPLC) pump and a TSQ Vantage triple quadrupole MS/MS instrument. For each sample, 2 μL samples from the top organic layer of in-plate liquid-liquid extraction were injected onto a Thermo Betabasic C4 column (2.1 mm×20 mm, 5 μm particle size). The samples were then eluted using the following conditions; mobile phase: Isopropanol:acetonitrile/10 mM ammonium formate=50/35/15 (v/v/v), flow rate: 0.8 mL/min, temperature: 25° C. Data was acquired in positive mode using a heated electrospray ionization (HESI) interface. The operational parameters for the TSQ Vantage MS/MS instrument were a spray voltage of 3000 V, capillary temperature of 280° C., vaporizer temperature 400° C., sheath gas 45 arbitrary unit. Aux gas 10 arbitrary units. […] The peak area was integrated by Xcalibur Quan software. The ratio between the ^13C18 triolein generated in the reaction and spiked in internal standard ^13C21-triolein was used to generate percentage inhibition and IC50 values. Compound percentage inhibition was calculated by the following formula: Inhibition %=1−[(compound response−low control)/(high control−low control)]×100%.
DGAT2 activity was determined by measuring the amount of enzymatic product ^13C18-triolein (^13C-1,2,3-Tri(cis-9-octadecenoyl)glycerol) using the membrane prep mentioned above. The assay was carried out in ABgene 384-well assay plates in a final volume of 25 μL at rt.

What is called IC50 is the midpoint of a concentration-inhibition curve. In the case of `CC1(CNC(=O)c2cn3cc(Oc4ncc(Cl)cc4OCC(F)(F)F)ccc3n2)CS(=O)(=O)C1` [Example 42, 6-[[5-chloro-3-(2,2,2-trifluoroethoxy)-2-pyridyl]oxy]-N-[(3-methyl-1,1-dioxo-thietan-3-yl)methyl]imidazo[1,2-a]pyridine-2-carboxamide], the half-maximal inhibitory concentration (IC50) is 50 nM.
On to `CC(C)c1cc2nc(C(=O)NC3(C)CCS(=O)(=O)CC3)cn2cc1Oc1ncc(Cl)cc1OCC(F)(F)F` [Example 43, 6-[[5-chloro-3-(2,2,2-trifluoroethoxy)-2-pyridyl]oxy]-7-isopropyl-N-(4-methyl-1,1-dioxo-thian-4-yl)imidazo[1,2-a]pyridine-2-carboxamide], for which half-maximal inhibition (IC50) required 122 nM.
Consider `Cc1c(Oc2nccnc2OCC(F)(F)F)cc(F)c2nc(C(=O)NC3(C)CCS(=O)(=O)CC3)cn12` [Example 44, 8-fluoro-5-methyl-N-(4-methyl-1,1-dioxo-thian-4-yl)-6-[3-(2,2,2-trifluoroethoxy)pyrazin-2-yl]oxy-imidazo[1,2-a]pyridine-2-carboxamide], for which the midpoint of inhibition, the IC50, lay at 68 nM. Compared with the last compound, the IC50 is about 1.8-fold lower.
`CCOc1cccnc1Oc1ccc2nc(C(=O)Nc3ccccc3)cn2c1` [Example 45, 6-[(3-ethoxy-2-pyridyl)oxy]-N-phenyl-imidazo[1,2-a]pyridine-2-carboxamide;2,2,2-trifluoroacetate] returned an IC50 of 168 nM.
Consider `Cc1c(Oc2nccnc2OCC(F)F)ccc2nc(C(=O)NC3(C)CCS(=O)(=O)CC3)cn12` [Example 46, 6-[3-(2,2-difluoroethoxy)pyrazin-2-yl]oxy-5-methyl-N-(4-methyl-1,1-dioxo-thian-4-yl)imidazo[1,2-a]pyridine-2-carboxamide], for which the IC50 turned out to be 42 nM.
Compound `CC(F)(F)COc1cc(F)cnc1Oc1cn2cc(C(=O)NC3(C)CCS(=O)(=O)CC3)nc2cc1F` [Example 47, 6-((3-(2,2-difluoropropoxy)-5-fluoropyridin-2-yl)oxy)-7-fluoro-N-(4-methyl-1,1-dioxidotetrahydro-2H-thiopyran-4-yl)imidazo[1,2-a]pyridine-2-carboxamide] registered an IC50 of 8.7 nM.
Then `CC(C)c1cc2nc(C(=O)NC3(C)CCS(=O)(=O)CC3)cn2cc1Oc1ncccc1OCC(F)(F)F` [Example 48, 7-isopropyl-N-(4-methyl-1,1-dioxo-thian-4-yl)-6-[[3-(2,2,2-trifluoroethoxy)-2-pyridyl]oxy]imidazo[1,2-a]pyridine-2-carboxamide], with 59 nM.
Turning to `CC(C)c1c(Oc2ncc(Cl)cc2OCC(F)(F)F)ccc2nc(C(=O)NC3(C)CCS(=O)(=O)CC3)cn12` [Example 49, 6-[[5-chloro-3-(2,2,2-trifluoroethoxy)-2-pyridyl]oxy]-5-isopropyl-N-(4-methyl-1,1-dioxo-thian-4-yl)imidazo[1,2-a]pyridine-2-carboxamide], the IC50 came out at 12 nM.
In the case of `CC1(CNC(=O)c2cn3cc(Oc4ncc(Cl)cc4OCC(F)(F)F)ccc3n2)CCS(=O)(=O)CC1` [Example 50, 6-[[5-chloro-3-(2,2,2-trifluoroethoxy)-2-pyridyl]oxy]-N-[(4-methyl-1,1-dioxo-thian-4-yl)methyl]imidazo[1,2-a]pyridine-2-carboxamide], the IC50 worked out at 174 nM.
Then `O=C(NC1CCOc2c(F)cc(F)cc21)c1cn2cc(Oc3ncccc3OCC(F)(F)F)ccc2n1` (centres unmarked) [Example 51, N-(6,8-difluorochroman-4-yl)-6-[[3-(2,2,2-trifluoroethoxy)-2-pyridyl]oxy]imidazo[1,2-a]pyridine-2-carboxamide], with 123 nM; and `CCOc1cccnc1Oc1ccc2nc(C(=O)N[C@H]3CCOC3)cn2c1` [Example 52, 6-[(3-ethoxy-2-pyridyl)oxy]-N-[(3S)-tetrahydrofuran-3-yl]imidazo[1,2-a]pyridine-2-carboxamide], with 814 nM.
Then `CCOc1cccnc1Oc1ccc2nc(C(=O)NCc3ccccc3)cn2c1` [Example 53, N-benzyl-6-[(3-ethoxy-2-pyridyl)oxy]imidazo[1,2-a]pyridine-2-carboxamide], with 346 nM; and `CCOc1cccnc1Oc1ccc2nc(C(=O)Nc3cccnc3)cn2c1` [Example 54, 6-[(3-ethoxy-2-pyridyl)oxy]-N-(3-pyridyl)imidazo[1,2-a]pyridine-2-carboxamide], with 850 nM; and `CC(C)c1c(Oc2ncc(Cl)cc2OCC(F)(F)F)ccc2nc(C(=O)NC3(C)CS(=O)(=O)C3)cn12` [Example 55, 6-[[5-chloro-3-(2,2,2-trifluoroethoxy)-2-pyridyl]oxy]-5-isopropyl-N-(3-methyl-1,1-dioxo-thietan-3-yl)imidazo[1,2-a]pyridine-2-carboxamide], with 89 nM.
For `CC1(NC(=O)c2cn3cc(Oc4ncccc4OCC(F)(F)F)cc(C(F)(F)F)c3n2)CCS(=O)(=O)CC1` [Example 56, N-(4-methyl-1,1-dioxo-thian-4-yl)-6-[[3-(2,2,2-trifluoroethoxy)-2-pyridyl]oxy]-8-(trifluoromethyl)imidazo[1,2-a]pyridine-2-carboxamide] the value was greater than 9990 nM; for `CCOc1cccnc1Oc1ccc2nc(C(=O)Nc3ccc(C)nn3)cn2c1` [Example 57, 6-[(3-ethoxy-2-pyridyl)oxy]-N-(6-methylpyridazin-3-yl)imidazo[1,2-a]pyridine-2-carboxamide], 1110 nM.
Regarding `CCC(F)(F)c1cccnc1Oc1ccc2nc(C(=O)NC3(C)CCS(=O)(=O)CC3)cn2c1` [Example 58, 6-[[3-(1,1-difluoropropyl)-2-pyridyl]oxy]-N-(4-methyl-1,1-dioxo-thian-4-yl)imidazo[1,2-a]pyridine-2-carboxamide], half-maximal inhibition (IC50) required 262 nM.
In turn, `CCc1cc2nc(C(=O)NC3(C)CCS(=O)(=O)CC3)cn2cc1Oc1ncc(Cl)cc1OCC(F)(F)F` [Example 59, 6-((5-Chloro-3-(2,2,2-trifluoroethoxy)pyridin-2-yl)oxy)-7-ethyl-N-(4-methyl-1,1-dioxidotetrahydro-2H-thiopyran-4-yl)imidazo[1,2-a]pyridine-2-carboxamide] yielded an IC50 of 9 nM.
Then `CC1(NC(=O)c2cn3cc(Oc4ncccc4O)ccc3n2)CCS(=O)(=O)CC1` [Example 60, 6-[(3-hydroxy-2-pyridyl)oxy]-N-(4-methyl-1,1-dioxo-thian-4-yl)imidazo[1,2-a]pyridine-2-carboxamide], with greater than 9990 nM; and `Cc1c(C(=O)NC2(C)CCS(=O)(=O)CC2)nc2ccc(Oc3ncc(Cl)cc3OCC(F)(F)F)cn12` [Example 61, 6-[[5-chloro-3-(2,2,2-trifluoroethoxy)-2-pyridyl]oxy]-3-methyl-N-(4-methyl-1,1-dioxo-thian-4-yl)imidazo[1,2-a]pyridine-2-carboxamide], with 3 nM; and `Cc1c(C(=O)NC2(CC(F)(F)F)CCS(=O)(=O)CC2)nc2ccc(Oc3ncc(F)cc3OCC(F)F)cn12` [Example 62, 6-[[3-(2,2-difluoroethoxy)-5-fluoro-2-pyridyl]oxy]-N-[1,1-dioxo-4-(2,2,2-trifluoroethyl)thian-4-yl]-3-methyl-imidazo[1,2-a]pyridine-2-carboxamide], with 1.5 nM.
`Cc1c(C(=O)NC2(C)CCS(=O)(=O)C(C)(C)C2)nc2ccc(Oc3ncc(F)cc3OCC(F)F)cn12` (centres unmarked) [Example 64] registered an IC50 of 1.7 nM.
Consider `Cc1c(C(=O)NC2(C(C)C)CCS(=O)(=O)CC2)nc2ccc(Oc3ncc(F)cc3OCC(F)F)cn12` [Example 65, 6-[[3-(2,2-difluoroethoxy)-5-fluoro-2-pyridyl]oxy]-N-(4-isopropyl-1,1-dioxo-thian-4-yl)-3-methyl-imidazo[1,2-a]pyridine-2-carboxamide], for which inhibition was half-maximal at 434 nM (IC50).
